Assay results taken from patent US8481525B2, “Kinase inhibitors and method of treating cancer with same” (University of Health Network, priority 2009, dated 2013).
Where a name gives a salt, the structure may show the parent alone. Read-outs that look alike come from different tables or passages of the source.

Assays:
Test in all cases: Cell growth inhibition, Sulforhodamine B assay (SRB)
Assay type in all cases: cell-based
[1] = test system: SW620 colon cancer cell line; details: Homo sapiens, SW-620, 120 h
Procedure: (§1) The cells were cultured for 5 days before the Sulforhodamine B assay (SRB) was performed to determine the compound's cell growth inhibition activity.
(§2) Sulforhodamine B (purchased from Sigma, Oakville, ON, Canada) is a water-soluble dye that binds to the basic amino acids of the cellular proteins. Thus, colorimetric measurement of the bound dye provides an estimate of the total protein mass that is related to the cell number. the cells are fixed in situ by gently aspirating off the culture media and adding 50 μl ice cold 10% Trichloroacetic Acid (TCA) per well and incubate at 4° C. for 30-60 min, The plates are washed with water five times and allowed to air dry for 5 min. […] Following staining, plates are washed four times with 1% acetic acid to remove unbound dye and then allowed to air dry for 5 min. […] Absorbance is read at 570 nm.
(§3) The percentage (%) of relative growth inhibition was calculated by comparing to DMSO treated only cells (100%). GI50's were determined for compounds with cytotoxic activity. The GI50 was calculated using GraphPad PRISM software (GraphPad Software, Inc., San Diego, Calif., USA).

[2] = test system: MCF-7 luminal breast cancer cell line; details: Homo sapiens, MCF7, 120 h
Procedure: as §1, §2, §3

[3] = test system: MDA-MB-468 basal breast cancer cell line; details: Homo sapiens, 5 days culture, SRB
Procedure: as §1, §2, §3

[4] = test system: HCC1954 basal breast cancer cell line; details: Homo sapiens
Procedure: as §1, §2, §3

[5] = test system: A549 lung cancer cell line; details: Homo sapiens, read-out: Cell Line GI50 Range A-549
Procedure: as §1, §2, §3

[6] = SW620 colon cancer cell line, 5 days culture, SRB, read-out: Cell Line GI50 Range SW-620
[7] = MCF-7 luminal breast cancer cell line, 5 days culture, SRB, read-out: Cell Line GI50 Range MCF-7
[8] = 120 h, MDA-MB-468 basal breast cancer cell line, read-out: Cell Line GI50 Range MDA-MB-468
[9] = HCC1954, 120 h, HCC1954 basal breast cancer cell line, 5 days culture, SRB, read-out: Cell Line GI50 Range HCC-1954
[10] = 120 h, A549 lung cancer cell line, 5 days culture, SRB
[11] = 120 h, HCC1954 basal breast cancer cell line, 5 days culture, SRB, read-out: Cell Line GI50 Range HCC-1954
[12] = HCC1954, 120 h, read-out: Cell Line GI50 Range HCC-1954
[13] = read-out: Cell Line GI50 Range MCF-7, MCF-7 luminal breast cancer cell line, 5 days culture, SRB
[14] = read-out: Cell Line GI50 Range SW-620, SW620 colon cancer cell line, 5 days culture, SRB

| Compound | GI50 [1, 6] | GI50 [2, 7] | GI50 [3, 8] | GI50 [5, 10] | GI50 [4, 11] | other results |
| --- | --- | --- | --- | --- | --- | --- |
| O=C1Nc2ncc(Br)cc2[C@@]12C[C@@H]2c1ccc2c(/C=C/c3cccnc3)n[nH]c2c1 (racemic) [Example A27, (1R*,2S*)-5′-bromo-2-(3-((E)-2-(pyridin-3-yl)vinyl)-1H-indazol-6-yl)spiro[cyclopropane-1,3′-pyrrolo[2,3-b]pyridin]-2′(1′H)-one] | 1000 to 10000 nM | 1000 to 10000 nM | 100 to 1000 nM | 1000 to 10000 nM | – | GI50 [4, 9]: 1000 to 10000 nM |
| O=C1Nc2ccccc2[C@@]12C[C@@H]2c1ccc2c(/C=C/c3cccnc3)n[nH]c2c1 (racemic) [Example A28, (1R*,2S*)-2-(3-((E)-2-(pyridin-3-yl)vinyl)-1H-indazol-6-yl)spiro-[cyclopropane-1,3′-indolin]-2′-one] | – | 1000 to 10000 nM | – | 1000 to 10000 nM | – | GI50 [4, 9]: 1000 to 10000 nM |
| COc1ccc2c(c1)[C@@]1(C[C@@H]1c1ccc3c(-c4ccnc(N5CCN(C)CC5)c4)n[nH]c3c1)C(=O)N2 (racemic) [Example A37, (1R*,2S*)-5′-Methoxy-2-(3-(2-(4-methylpiperazin-1-yl)pyridin-4-yl)-1H-indazol-6-yl)spiro[cyclopropane-1,3′-indolin]-2′-one] | < 100 nM | > 10000 nM | 100 to 1000 nM | < 100 nM | > 10000 nM | – |
| COc1ccc2c(c1)[C@@]1(C[C@@H]1c1ccc3c(-c4ccc(N5CCN(C)CC5)cc4)n[nH]c3c1)C(=O)N2 (racemic) [Example A38, (1R*,2S*)-5′-Methoxy-2-(3-(4-(4-methylpiperazin-1-yl)phenyl)-1H-indazol-6-yl)spiro[cyclopropane-1,3′-indolin]-2′-one] | – | – | – | – | – | GI50 ([1]; read-out: Cell Line GI50 Range SW-620): 100 to 1000 nM; GI50 ([2]; read-out: Cell Line GI50 Range MCF-7): 100 to 1000 nM; GI50 ([3]; MDA-MB-468, 120 h, read-out: Cell Line GI50 Range MDA-MB-468, MDA-MB-468 basal breast cancer cell line): < 100 nM; GI50 ([4]; HCC1954, 120 h, read-out: Cell Line GI50 Range HCC-1954, HCC1954 basal breast cancer cell line, 5 days culture, SRB): > 10000 nM; GI50 ([5]; A549, 120 h): < 100 nM |
| COc1ccc2c(c1)[C@@]1(C[C@@H]1c1ccc3c(-c4cccc(CO)c4)n[nH]c3c1)C(=O)N2 (racemic) [Example A43, (1R*,2S*)-2-(3-(3-(hydroxymethyl)phenyl)-1H-indazol-6-yl)-5′-methoxy spiro[cyclopropane-1,3′-indolin]-2′-one 2,2,2-trifluoroacetate] | 1000 to 10000 nM | 1000 to 10000 nM | 1000 to 10000 nM | 1000 to 10000 nM | > 10000 nM | – |
| COc1ccc2c(c1)[C@@]1(C[C@@H]1c1ccc3c(-c4ccc(CO)cc4)n[nH]c3c1)C(=O)N2 (racemic) [Example A45, (1R*,2S*)-2-(3-(4-(hydroxymethyl)phenyl)-1H-indazol-6-yl)-5′-methoxyspiro[cyclopropane-1,3′-indolin]-2′-one 2,2,2-trifluoroacetate] | 1000 to 10000 nM | 1000 to 10000 nM | 100 to 1000 nM | 100 to 1000 nM | > 10000 nM | – |
| COc1ccc2c(c1)[C@@]1(C[C@@H]1c1ccc3c(-c4cccc(N5CCNCC5)c4)n[nH]c3c1)C(=O)N2 (racemic) [Example A47, (1R*,2S*)-5′-methoxy-2-(3-(3-(piperazin-1-yl)phenyl)-1H-indazol-6-yl)spiro[cyclopropane-1,3′-indolin]-2′-one 2,2,2-trifluoroacetate] | 1000 to 10000 nM | 1000 to 10000 nM | 1000 to 10000 nM | 1000 to 10000 nM | – | GI50 [4, 9]: 1000 to 10000 nM |
| COc1ccc2c(c1)[C@]1(C[C@H]1c1ccc3c(/C=C/c4ccc(CN5CCCCC5)nc4)n[nH]c3c1)C(=O)N2 (racemic) [Example A62, (1R,2S)-(E)-5′-methoxy-2-(3-((E)-2-(6-(piperidin-ylmethyl)pyridin-3-yl)vinyl)-1H-indazol-6-yl)spiro[cyclopropane-1,3′-indolin]-2′-one 2,2,2-trifluoroacetate salt] | – | – | – | – | – | GI50 [4, 12]: 1000 to 10000 nM |
| CN1C(=O)[C@@]2(C[C@H]2c2ccc3c(/C=C/c4ccc(CN5CCOCC5)cc4)n[nH]c3c2)c2ccccc21 (racemic) [Example A87, (1R*,2S*)-(E)-1′-methyl-2-(3-(4-(morpholinomethyl)styryl)-1H-indazol-6-yl)spiro[cyclopropane-1,3′-indolin]-2′-one 2,2,2-trifluoroacetate] | 100 to 1000 nM | < 100 nM | < 100 nM | < 100 nM | – | GI50 [4, 9]: 1000 to 10000 nM |
| COc1ccc2c(c1)[C@@]1(C[C@@H]1c1ccc3c(-c4ccc(N5CCN(C)CC5)cc4)n[nH]c3c1)C(=O)N2C (racemic) [Example A100, (1R*,2S*)-5′-methoxy-1′-methyl-2-(3-(4-(4-methylpiperazin-1-yl)phenyl)-1H-indazol-6-yl)spiro[cyclopropane-1,3′-indolin]-2′-one 2,2,2-trifluoroacetate] | < 100 nM | 100 to 1000 nM | 100 to 1000 nM | < 100 nM | 1000 to 10000 nM | – |
| NS(=O)(=O)c1cccc(-c2n[nH]c3cc([C@@H]4C[C@@]45C(=O)Nc4ccccc45)ccc23)c1 (racemic) [Example A130, 3-(6-((1R*,2S*)-2′-oxospiro[cyclopropane-1,3′-indoline]-2-yl)-1H-indazol-3-yl)benzenesulfonamide] | > 10000 nM | 1000 to 10000 nM | 1000 to 10000 nM | > 10000 nM | > 10000 nM | – |
| COc1ccc2c(c1)[C@]1(C[C@H]1c1ccc3c(/C=C/c4cccc(CN5CCOCC5)c4)n[nH]c3c1)C(=O)N2 (racemic) [Example A133, (1R*,2S*)-5′-methoxy-2-(3-(3-(morpholinomethyl)styryl)-1H-indazol-6-yl)spiro[cyclopropane-1,3′-indolin]-2′-one 2,2,2-trifluoroacetate] | 100 to 1000 nM | < 100 nM | – | – | > 10000 nM | – |
| COc1ccc2c(c1)[C@]1(C[C@H]1c1ccc3c(/C=C/c4cccc(CN(C)C)c4)n[nH]c3c1)C(=O)N2 (racemic) [Example A135, (1R*,2S*)-2-(3-(3-((dimethylamino)methyl)styryl)-1H-indazol-6-yl)-5′-methoxyspiro[cyclopropane-1,3′-indolin]-2′-one 2,2,2-trifluoroacetate] | 100 to 1000 nM | – | – | – | – | GI50 [4, 9]: > 10000 nM |
| O=C1Nc2ccc(F)cc2[C@@]12C[C@@H]2c1ccc2c(/C=C/c3ccc(CN4CCOCC4)cc3)n[nH]c2c1 (racemic) [Example A219, (1R*,2S*)-(E)-5′-fluoro-2-(3-(4-(morpholinomethyl)styryl-1H-indazol-6-yl)spiro[cyclopropane-1,3′-indolin]-2′-one 2,2,2-trifluoroacetate] | – | – | – | – | – | GI50 [2, 13]: 100 to 1000 nM; GI50 [4, 12]: 100 to 1000 nM |
| COc1ccc2c(c1)[C@]1(CC1c1ccc3c(/C=C/c4ccc(CN5C[C@@H](C)O[C@@H](C)C5)cc4)n[nH]c3c1)C(=O)N2 (relative stereo) [Example A186, (1R*,2S*)-(E)-2-(3-(4-trans-2,6-dimethylmorpholino)methyl)styryl)-1H-indazol-6-yl)-5′-methoxspiro[cyclopropane-1,3′-indolin]-2′-one 2,2,2-trifluoroacetate] | – | – | – | – | 1000 to 10000 nM | – |
| CCN(CC)Cc1ccc(/C=C/c2n[nH]c3cc([C@@H]4C[C@@]45C(=O)Nc4ccccc45)ccc23)cc1 (relative stereo) [Example A211, (1R*,2S*)-(E)-2-(3-(4-((diethylamino)methyl)styryl)-1H-indazol-6-yl)spiro-[cyclopropane-1,3′-indolin]-2′-one 2,2,2-trifluoroacetate] | – | – | – | – | – | GI50 [1, 14]: 100 to 1000 nM; GI50 [2, 13]: 100 to 1000 nM |
| CN(C)Cc1ccc(/C=C/c2n[nH]c3cc([C@@H]4C[C@@]45C(=O)Nc4ccccc45)ccc23)cc1 [Example A24, (1R,2S)-(E)-2-(3-(4-((dimethylamino)methyl)styryl)-1H-indazol-6-yl)spiro[cyclopropane-1,3′-indolin]-2′-one 2,2,2-trifluoroacetate] | – | – | – | – | – | GI50 [1, 14]: < 100 nM |
